The text below walks through data of patent US20220402935A1, “HETEROCYCLIC COMPOUND” (FIMECS, INC., priority 2019, published 2022).

The target of one assay is T1, IRAK-M (Homo sapiens, UniProt Q9Y616).
T1 sequence (Q9Y616 1-596): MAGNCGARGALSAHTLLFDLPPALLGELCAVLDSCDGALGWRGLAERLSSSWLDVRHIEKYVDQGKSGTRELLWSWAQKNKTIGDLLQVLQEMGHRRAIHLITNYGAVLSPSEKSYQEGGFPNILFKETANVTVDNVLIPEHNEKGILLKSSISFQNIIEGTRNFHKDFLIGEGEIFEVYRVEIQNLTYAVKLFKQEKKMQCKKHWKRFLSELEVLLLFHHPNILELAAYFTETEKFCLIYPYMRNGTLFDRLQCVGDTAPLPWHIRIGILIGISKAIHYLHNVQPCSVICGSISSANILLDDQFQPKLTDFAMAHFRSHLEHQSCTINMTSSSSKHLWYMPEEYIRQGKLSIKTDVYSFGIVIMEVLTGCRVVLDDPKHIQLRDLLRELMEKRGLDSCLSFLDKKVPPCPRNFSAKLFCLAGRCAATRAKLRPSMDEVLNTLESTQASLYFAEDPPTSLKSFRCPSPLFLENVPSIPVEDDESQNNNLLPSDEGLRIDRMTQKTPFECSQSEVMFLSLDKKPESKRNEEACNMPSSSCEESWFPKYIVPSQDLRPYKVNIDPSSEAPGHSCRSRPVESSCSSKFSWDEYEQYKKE
Description: IRAK-M binding inhibitory activity (KINOMEscan active site-dependent competitive assay). Also on record: purchased Eurofins Discover X. To be noted: concentration of the test compound 1 μM; first symbol of cell; read-out: IRAK-M binding inhibition activity % Ctrl. The protocol:
IRAK-M binding inhibitory activity was evaluated using active site-dependent competitive assay KINOMEscan® provided by Eurofins Discover X (Goldstein, D. M. et al. High-throughput kinase profiling as a platform for drug discovery. Nat. Rev. Drug Discovery. 7, 391-397 (2008)). IRAK-M binding inhibitory activity of the test compound was evaluated. […] The “% Ctrl” is calculated by the following formula.
(test compound signal−positive control compound signal)/(negative control compound signal−positive control compound signal)×100
Negative control compound=DMSO (100 Ctrl)
Positive control compound=control compound (0%×Ctrl)
Turning to `Cc1ccc(NS(=O)(=O)c2ccc(CNC(=O)COCCOCCOc3cc(CN4CCC(Oc5ccnc6ccsc56)CC4)on3)cc2)c2[nH]cc(C#N)c12` [Example 68, N-(4-(N-(3-cyano-4-methyl-1H-indol-7-yl)sulfamoyl)benzyl)-2-(2-(2-((5-((4-(thieno[3,2-b]pyridin-7-yloxy)piperidin-1-yl)methyl)isoxazol-3-yl)oxy)ethoxy)ethoxy)acetamide], the remaining binding at 1 µM lay within 25 to 50%.

For the molecule `Cc1nn(C)c(C)c1CN1CCC(Oc2ccnc3ccsc23)CC1` [Ref. example 75, 7-((1-((1,3,5-trimethyl-1H-pyrazol-4-yl)methyl)piperidin-4-yl)oxy)thieno[3,2-b]pyridine], the remaining binding at 1 µM was not below 75%.

As for `O=S(=O)(c1ccccc1OC(F)(F)F)N1CCC(Oc2ncnc3ccsc23)CC1` [Ref. example 50, 4-((1-((2-(trifluoromethoxy)phenyl)sulfonyl)piperidin-4-yl)oxy)thieno[3,2-d]pyrimidine], the remaining binding at 1 µM lay in the range of 25 to 50%.

With `O=S(=O)(c1ccccc1Oc1ccc(F)cc1)N1CCC(Oc2ncnc3ccsc23)CC1` [Ref. example 48, 4-((1-((2-(4-fluorophenoxy)phenyl)sulfonyl)piperidin-4-yl)oxy)thieno[3,2-d]pyrimidine], the remaining binding at 1 µM was less than 25%.

As to `O=C1OCc2cc(Nc3ncnc4ccsc34)ccc21` [Ref. example 29, 5-(thieno[3,2-d]pyrimidin-4-ylamino)isobenzofuran-1(3H)-one], the remaining binding at 1 µM was in the range of 25 to 50%.

Turning to `COc1ccccc1Nc1ncnc2cc(-c3ccccc3)sc12` [Ref. example 13, N-(2-methoxyphenyl)-6-phenylthieno[3,2-d]pyrimidin-4-amine], the remaining binding at 1 µM was not below 75%.

As for `c1ccc(-c2cc3ncnc(Nc4ccccn4)c3s2)cc1` [Ref. example 15, 6-phenyl-N-(pyridin-2-yl)thieno[3,2-d]pyrimidin-4-amine], the remaining binding at 1 µM is 25 to 50%.

For the molecule `c1cc(Nc2ncnc3ccsc23)ccn1` [Ref. example 21, N-(pyridin-4-yl)thieno[3,2-d]pyrimidin-4-amine], the remaining binding at 1 µM is less than 25%.

Take `Cc1ncsc1-c1ccc(CNC(=O)[C@@H]2C[C@@H](O)CN2C(=O)[C@H](C(C)C)N2Cc3ccccc3C2=O)c(OCCOCCOCCOc2cc(CN3CCC(Oc4ccnc5ccsc45)CC3)on2)c1` [Example 62, (2S,4R)-4-hydroxy-1-((S)-3-methyl-2-(1-oxoisoindolin-2-yl)butanoyl)-N-(4-(4-methylthiazol-5-yl)-2-(2-(2-(2-((5-((4-(thieno[3,2-b]pyridin-7-yloxy)piperidin-1-yl)methyl)isoxazol-3-yl)oxy)ethoxy)ethoxy)ethoxy)benzyl)pyrrolidine-2-carboxamide]: the remaining binding at 1 µM lay within 50 to 75%.

`NC(=O)c1ccc(Nc2ncnc3ccsc23)cc1` [Ref. example 18, 4-(thieno[3,2-d]pyrimidin-4-ylamino)benzamide]: the remaining binding at 1 µM lay within 50 to 75%.

For `Cn1nccc1CN1CCC(Oc2ccnc3ccsc23)CC1` [Ref. example 77, 7-((1-((1-methyl-1H-pyrazol-5-yl)methyl)piperidin-4-yl)oxy)thieno[3,2-b]pyridine], the remaining binding at 1 µM lay in the range of 25 to 50%.

Regarding `Cc1ccc(S(=O)(=O)N2CCC(Oc3ncnc4ccsc34)CC2)cc1` [Ref. example 55, 4-((1-(4-methylbenzenesulfonyl)piperidin-4-yl)oxy)thieno[3,2-d]pyrimidine], the remaining binding at 1 µM is 25 to 50%.

Take `NC(=O)c1ccc(Nc2ncnc3ccsc23)c(OC2CCOC2)c1` (centres unmarked) [Ref. example 11, 3-((tetrahydrofuran-3-yl)oxy)-4-(thieno[3,2-d]pyrimidin-4-ylamino)benzamide]: the remaining binding at 1 µM lay in the range of 50 to 75%.

With `NC(=O)c1cccc(Nc2ncnc3ccsc23)c1` [Ref. example 20, 3-(thieno[3,2-d]pyrimidin-4-ylamino)benzamide], the remaining binding at 1 µM was 50 to 75%.

As for `Oc1cc(CN2CCC(Oc3ccnc4ccsc34)CC2)on1` [Ref. example 4, 5-((4-(thieno[3,2-b]pyridin-7-yloxy)piperidin-1-yl)methyl)isoxazol-3-ol], the remaining binding at 1 µM lay within 50 to 75%.

In the case of `O=S(=O)(c1cccc(Cl)c1)N1CCC(Oc2ncnc3ccsc23)CC1` [Ref. example 57, 4-((1-((3-chlorophenyl)sulfonyl)piperidin-4-yl)oxy)thieno[3,2-d]pyrimidine], the remaining binding at 1 µM is 25 to 50%.

As for `c1ccc(-c2cc3ncnc(NCC4CC4)c3s2)cc1` [Ref. example 14, N-(cyclopropylmethyl)-6-phenylthieno[3,2-d]pyrimidin-4-amine], the remaining binding at 1 µM lay within 25 to 50%.

Regarding `Cc1cnn(C)c1S(=O)(=O)N1CCC(Oc2ncnc3ccsc23)CC1` [Ref. example 61, 4-((1-((1,4-dimethyl-1H-pyrazol-5-yl)sulfonyl)piperidin-4-yl)oxy)thieno[3,2-d]pyrimidine], the remaining binding at 1 µM is not below 75%.

As to `O=S(=O)(C1CC1)N1CCC(Oc2ncnc3ccsc23)CC1` [Ref. example 44, 4-((1-(cyclopropylsulfonyl)piperidin-4-yl)oxy)thieno[3,2-d]pyrimidine], the remaining binding at 1 µM fell in the range of 25 to 50%.

With `Cc1nn(C)cc1CN1CCC(Oc2ccnc3ccsc23)CC1` [Ref. example 74, 7-((1-((1,3-dimethyl-1H-pyrazol-4-yl)methyl)piperidin-4-yl)oxy)thieno[3,2-b]pyridine], the remaining binding at 1 µM lay within 50 to 75%.

As for `Cn1nc(O)cc1CN1CCC(Oc2ccnc3ccsc23)CC1` [Ref. example 68, 1-methyl-5-((4-(thieno[3,2-b]pyridin-7-yloxy)piperidin-1-yl)methyl)-1H-pyrazol-3-ol], the remaining binding at 1 µM lay within 25 to 50%.

For `C=CCn1oc(CN2CCC(Oc3ccnc4ccsc34)CC2)cc1=O` [Ref. example 84, 2-allyl-5-((4-(thieno[3,2-b]pyridin-7-yloxy)piperidin-1-yl)methyl)isoxazol-3(2H)-one], the remaining binding at 1 µM was 25 to 50%.

As to `Cc1noc(C)c1CN1CCC(Oc2ccnc3ccsc23)CC1` [Ref. example 78, 3,5-dimethyl-4-((4-(thieno[3,2-b]pyridin-7-yloxy)piperidin-1-yl)methyl)isoxazole], the remaining binding at 1 µM fell in the range of 25 to 50%.

On to `Ic1cc2ncnc(OC3CCOCC3)c2s1` [Ref. example 34, 6-iodo-4-((tetrahydro-2H-pyran-4-yl)oxy)thieno[3,2-d]pyrimidine], for which the remaining binding at 1 µM is not below 75%.

For `CN1CCC(Oc2ncnc3cc(-c4cnn(C)c4)sc23)CC1` [Ref. example 31, 6-(1-methyl-1H-pyrazol-4-yl)-4-((1-methylpiperidin-4-yl)oxy)thieno[3,2-d]pyrimidine], the remaining binding at 1 µM is not below 75%.

As for `O=S(=O)(c1cnn(Cc2ccccc2)c1)N1CCC(Oc2ncnc3ccsc23)CC1` [Ref. example 59, 4-((1-((1-benzyl-1H-pyrazol-4-yl)sulfonyl)piperidin-4-yl)oxy)thieno[3,2-d]pyrimidine], the remaining binding at 1 µM fell in the range of 25 to 50%.

For `Cn1cc(CN2CCC(Oc3ccnc4ccsc34)CC2)cn1` [Ref. example 73, 7-((1-((1-methyl-1H-pyrazol-4-yl)methyl)piperidin-4-yl)oxy)thieno[3,2-b]pyridine], the remaining binding at 1 µM is not below 75%.

Staying with this assay, now noted: second symbol of cell; read-out: IRAK-M binding inhibition IC50 value.
With `C#CCOc1cc(CN2CCC(Oc3ccnc4ccsc34)CC2)on1` [Ref. example 71, 3-(prop-2-yn-1-yloxy)-5-((4-(thieno[3,2-b]pyridin-7-yloxy)piperidin-1-yl)methyl)isoxazole], the concentration for half-maximal inhibition (IC50) (usually the point on the concentration scale where inhibition reaches its midpoint) lay within 30 to 100 nM.

With `C=CCOc1cc(CN2CCC(Oc3ccnc4cc(C)sc34)CC2)on1` [Ref. example 72, 3-(allyloxy)-5-((4-((2-methylthieno[3,2-b]pyridin-7-yl)oxy)piperidin-1-yl)methyl)isoxazole], the 50% inhibitory concentration (IC50) fell in the range of 30 to 100 nM.

For the molecule `Cc1ncsc1-c1ccc(CNC(=O)[C@@H]2C[C@@H](O)CN2C(=O)[C@@H](NC(=O)COCCOCCOCCOc2cc(CN3CCC(Oc4ccnc5ccsc45)CC3)on2)C(C)(C)C)cc1` [Example 61, (2S,4R)-1-((S)-2-(tert-butyl)-4-oxo-14-((5-((4-(thieno[3,2-b]pyridin-7-yloxy)piperidin-1-yl)methyl)isoxazol-3-yl)oxy)-6,9,12-trioxa-3-azatetradecanoyl)-4-hydroxy-N-(4-(4-methylthiazol-5-yl)benzyl)pyrrolidine-2-carboxamide], the half-maximal inhibitory concentration (IC50) fell in the range of 300 to 1000 nM.

For the molecule `C=CCOc1cc(CN2CCC(Oc3ccnc4ccsc34)CC2)on1` [Ref. example 3], the IC50 lay within 100 to 300 nM.

Take `O=C1CCC(N2C(=O)c3cccc(OCCOCCOCCOCCOc4cc(CN5CCC(Oc6ccnc7ccsc67)CC5)on4)c3C2=O)C(=O)N1` (centres unmarked) [Example 67, 2-(2,6-dioxopiperidin-3-yl)-4-(2-(2-(2-(2-((5-((4-(thieno[3,2-b]pyridin-7-yloxy)piperidin-1-yl)methyl)isoxazol-3-yl)oxy)ethoxy)ethoxy)ethoxy)ethoxy)isoindoline-1,3-dione]: the IC50 lay within 100 to 300 nM.
